In ChEMBL document CHEMBL1649369, “Novel 4-aryl-pyrido[1,2-c]pyrimidines with dual SSRI and 5-HT(1A) activity. part 3” (Eur J Med Chem, 2011):
The source made the active and inactive calls. The rule behind the calls is not given here.

target: T1, 5-hydroxytryptamine receptor 1A (Rattus norvegicus, UniProt P19327); assay: Displacement of [3H]8-OH-DPAT from 5-HT1A receptor in rat hippocampus; assay type: tissue-based; settings: not given
T1 sequence (P19327 whole entry): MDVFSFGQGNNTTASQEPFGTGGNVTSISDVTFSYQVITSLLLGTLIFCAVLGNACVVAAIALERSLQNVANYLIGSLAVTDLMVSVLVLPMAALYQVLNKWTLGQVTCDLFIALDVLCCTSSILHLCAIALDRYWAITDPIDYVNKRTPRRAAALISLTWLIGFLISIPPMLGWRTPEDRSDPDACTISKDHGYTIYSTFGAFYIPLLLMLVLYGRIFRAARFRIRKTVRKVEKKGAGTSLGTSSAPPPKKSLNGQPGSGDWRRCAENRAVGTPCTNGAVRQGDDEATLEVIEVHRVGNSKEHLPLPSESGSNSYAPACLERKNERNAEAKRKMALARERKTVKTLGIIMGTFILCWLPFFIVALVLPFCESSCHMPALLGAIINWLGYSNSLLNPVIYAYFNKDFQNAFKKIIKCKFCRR

SMILES	Ki [nM]
COc1ccc(-c2c3n(c(=O)n(CCCCN4CCC(c5c[nH]c6ccccc56)CC4)c2=O)CCCC3)cc1	32.4
Cc1ccccc1-c1c2n(c(=O)n(CCCCN3CCC(c4c[nH]c5ccccc45)CC3)c1=O)CCCC2	112
Cc1[nH]c2ccccc2c1C1CCN(CCCCn2c(=O)c(-c3ccccc3F)c3n(c2=O)CCCC3)CC1	303
O=c1c(-c2ccccc2)c2n(c(=O)n1CCCCN1CCC(c3c[nH]c4ccccc34)CC1)CCCC2	28.3

target: Sodium-dependent serotonin transporter (Rattus norvegicus, UniProt P31652); assay: Displacement of [3H]citalopram from SERT in rat cerebral cortex by liquid scintillation counting; assay type: tissue-based; settings: not given
Sequence (P31652 whole entry): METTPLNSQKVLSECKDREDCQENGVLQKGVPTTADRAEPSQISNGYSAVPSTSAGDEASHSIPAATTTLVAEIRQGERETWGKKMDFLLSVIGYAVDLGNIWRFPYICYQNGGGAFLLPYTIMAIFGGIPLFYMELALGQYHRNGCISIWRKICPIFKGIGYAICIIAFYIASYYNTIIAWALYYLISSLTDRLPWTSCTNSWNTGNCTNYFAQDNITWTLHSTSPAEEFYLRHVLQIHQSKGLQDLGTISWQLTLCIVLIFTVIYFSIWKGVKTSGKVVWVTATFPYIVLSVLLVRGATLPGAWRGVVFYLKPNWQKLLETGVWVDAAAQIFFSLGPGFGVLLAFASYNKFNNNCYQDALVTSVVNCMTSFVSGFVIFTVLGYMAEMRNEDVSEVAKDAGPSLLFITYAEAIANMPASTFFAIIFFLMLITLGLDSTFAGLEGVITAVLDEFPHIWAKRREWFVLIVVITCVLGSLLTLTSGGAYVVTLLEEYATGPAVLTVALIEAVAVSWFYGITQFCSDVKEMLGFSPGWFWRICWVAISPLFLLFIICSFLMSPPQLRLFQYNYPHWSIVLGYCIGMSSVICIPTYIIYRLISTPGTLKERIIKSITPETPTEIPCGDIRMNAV

SMILES	Ki [nM]
COc1ccc(-c2c3n(c(=O)n(CCCCN4CCC(c5c[nH]c6ccccc56)CC4)c2=O)CCCC3)cc1	50.4
Cc1ccccc1-c1c2n(c(=O)n(CCCCN3CCC(c4c[nH]c5ccccc45)CC3)c1=O)CCCC2	69.1
Cc1[nH]c2ccccc2c1C1CCN(CCCCn2c(=O)c(-c3ccccc3F)c3n(c2=O)CCCC3)CC1	1300
O=c1c(-c2ccccc2)c2n(c(=O)n1CCCCN1CCC(c3c[nH]c4ccccc34)CC1)CCCC2	81.7

system: Mus musculus; assay: Effect on hypothermia in Swiss albino mouse assessed as change in rectal body temperature at 5 mg/kg, ip after 30 mins by inducible hypothermia test; assay type: functional, organism-based; parameters: dose 5 mg/kg; settings: not given

SMILES	deltaT [°C]
COc1ccc(-c2c3n(c(=O)n(CCCCN4CCC(c5c[nH]c6ccccc56)CC4)c2=O)CCCC3)cc1	-0.6
O=c1c(-c2ccccc2)c2n(c(=O)n1CCCCN1CCC(c3c[nH]c4ccccc34)CC1)CCCC2	-0.7

system: Mus musculus; assay: Effect on hypothermia in Swiss albino mouse assessed as change in rectal body temperature at 5 mg/kg, ip after 60 mins by inducible hypothermia test; assay type: functional, organism-based; parameters: dose 5 mg/kg; settings: not given

SMILES	deltaT [°C]
COc1ccc(-c2c3n(c(=O)n(CCCCN4CCC(c5c[nH]c6ccccc56)CC4)c2=O)CCCC3)cc1	-0.2
O=c1c(-c2ccccc2)c2n(c(=O)n1CCCCN1CCC(c3c[nH]c4ccccc34)CC1)CCCC2	-0.3

system: Mus musculus; assay: Effect on hypothermia in Swiss albino mouse assessed as change in rectal body temperature at 5 mg/kg, ip after 90 mins by inducible hypothermia test; assay type: functional, organism-based; parameters: dose 5 mg/kg; settings: not given

SMILES	deltaT [°C]
COc1ccc(-c2c3n(c(=O)n(CCCCN4CCC(c5c[nH]c6ccccc56)CC4)c2=O)CCCC3)cc1	-0.2
O=c1c(-c2ccccc2)c2n(c(=O)n1CCCCN1CCC(c3c[nH]c4ccccc34)CC1)CCCC2	-0.2

system: Mus musculus; assay: Effect on hypothermia in Swiss albino mouse assessed as change in rectal body temperature at 5 mg/kg, ip after 120 mins by inducible hypothermia test; assay type: functional, organism-based; parameters: dose 5 mg/kg; settings: not given

SMILES	deltaT [°C]
COc1ccc(-c2c3n(c(=O)n(CCCCN4CCC(c5c[nH]c6ccccc56)CC4)c2=O)CCCC3)cc1	-0.2
O=c1c(-c2ccccc2)c2n(c(=O)n1CCCCN1CCC(c3c[nH]c4ccccc34)CC1)CCCC2	-0.1

system: Mus musculus; assay: Effect on hypothermia in Swiss albino mouse assessed as change in rectal body temperature at 10 mg/kg, ip after 30 mins by inducible hypothermia test; assay type: functional, organism-based; parameters: dose 10 mg/kg; settings: not given

SMILES	deltaT [°C]
COc1ccc(-c2c3n(c(=O)n(CCCCN4CCC(c5c[nH]c6ccccc56)CC4)c2=O)CCCC3)cc1	-0.8
O=c1c(-c2ccccc2)c2n(c(=O)n1CCCCN1CCC(c3c[nH]c4ccccc34)CC1)CCCC2	-1.1

system: Mus musculus; assay: Effect on hypothermia in Swiss albino mouse assessed as change in rectal body temperature at 10 mg/kg, ip after 60 mins by inducible hypothermia test; assay type: functional, organism-based; parameters: dose 10 mg/kg; settings: not given

SMILES	deltaT [°C]
COc1ccc(-c2c3n(c(=O)n(CCCCN4CCC(c5c[nH]c6ccccc56)CC4)c2=O)CCCC3)cc1	-0.5
O=c1c(-c2ccccc2)c2n(c(=O)n1CCCCN1CCC(c3c[nH]c4ccccc34)CC1)CCCC2	-0.3

system: Mus musculus; assay: Effect on hypothermia in Swiss albino mouse assessed as change in rectal body temperature at 10 mg/kg, ip after 90 mins by inducible hypothermia test; assay type: functional, organism-based; parameters: dose 10 mg/kg; settings: not given

SMILES	deltaT [°C]
COc1ccc(-c2c3n(c(=O)n(CCCCN4CCC(c5c[nH]c6ccccc56)CC4)c2=O)CCCC3)cc1	-0.3
O=c1c(-c2ccccc2)c2n(c(=O)n1CCCCN1CCC(c3c[nH]c4ccccc34)CC1)CCCC2	-0.2

system: Mus musculus; assay: Effect on hypothermia in Swiss albino mouse assessed as change in rectal body temperature at 10 mg/kg, ip after 120 mins by inducible hypothermia test; assay type: functional, organism-based; parameters: dose 10 mg/kg; settings: not given

SMILES	deltaT [°C]
COc1ccc(-c2c3n(c(=O)n(CCCCN4CCC(c5c[nH]c6ccccc56)CC4)c2=O)CCCC3)cc1	-0.2
O=c1c(-c2ccccc2)c2n(c(=O)n1CCCCN1CCC(c3c[nH]c4ccccc34)CC1)CCCC2	-0.1

system: Mus musculus; assay: Effect on hypothermia in Swiss albino mouse assessed as change in rectal body temperature at 20 mg/kg, ip after 30 mins by inducible hypothermia test; assay type: functional, organism-based; parameters: dose 20 mg/kg; settings: not given

SMILES	deltaT [°C]
COc1ccc(-c2c3n(c(=O)n(CCCCN4CCC(c5c[nH]c6ccccc56)CC4)c2=O)CCCC3)cc1	-1.6

system: Mus musculus; assay: Effect on hypothermia in Swiss albino mouse assessed as change in rectal body temperature at 20 mg/kg, ip after 60 mins by inducible hypothermia test; assay type: functional, organism-based; parameters: dose 20 mg/kg; settings: not given

SMILES	deltaT [°C]
COc1ccc(-c2c3n(c(=O)n(CCCCN4CCC(c5c[nH]c6ccccc56)CC4)c2=O)CCCC3)cc1	-0.9

system: Mus musculus; assay: Effect on hypothermia in Swiss albino mouse assessed as change in rectal body temperature at 20 mg/kg, ip after 90 mins by inducible hypothermia test; assay type: functional, organism-based; parameters: dose 20 mg/kg; settings: not given

SMILES	deltaT [°C]
COc1ccc(-c2c3n(c(=O)n(CCCCN4CCC(c5c[nH]c6ccccc56)CC4)c2=O)CCCC3)cc1	-0.5

system: Mus musculus; assay: Effect on hypothermia in Swiss albino mouse assessed as change in rectal body temperature at 20 mg/kg, ip after 120 mins by inducible hypothermia test; assay type: functional, organism-based; parameters: dose 20 mg/kg; settings: not given

SMILES	deltaT [°C]
COc1ccc(-c2c3n(c(=O)n(CCCCN4CCC(c5c[nH]c6ccccc56)CC4)c2=O)CCCC3)cc1	-0.3

system: Mus musculus; assay: Effect on hypothermia in Swiss albino mouse assessed as change in rectal body temperature at 0.1 mg/kg, ip after 30 mins by inducible hypothermia test; assay type: functional, organism-based; parameters: dose 0.1 mg/kg; settings: not given

SMILES	deltaT [°C]
CC(C)NCC(O)COc1cccc2[nH]ccc12 (centres undefined)	-0.2

system: Mus musculus; assay: Effect on hypothermia in Swiss albino mouse assessed as change in rectal body temperature at 0.1 mg/kg, ip after 60 mins by inducible hypothermia test; assay type: functional, organism-based; parameters: dose 0.1 mg/kg; settings: not given

SMILES	deltaT [°C]
CC(C)NCC(O)COc1cccc2[nH]ccc12 (centres undefined)	-0.1

system: Mus musculus; assay: Effect on hypothermia in Swiss albino mouse assessed as change in rectal body temperature at 0.1 mg/kg, ip after 90 mins by inducible hypothermia test; assay type: functional, organism-based; parameters: dose 0.1 mg/kg; settings: not given

SMILES	deltaT [°C]
CC(C)NCC(O)COc1cccc2[nH]ccc12 (centres undefined)	-0.1

system: Mus musculus; assay: Effect on hypothermia in Swiss albino mouse assessed as change in rectal body temperature at 0.1 mg/kg, ip after 120 mins by inducible hypothermia test; assay type: functional, organism-based; parameters: dose 0.1 mg/kg; settings: not given

SMILES	deltaT [°C]
CC(C)NCC(O)COc1cccc2[nH]ccc12 (centres undefined)	-0.1

system: Mus musculus; assay: Effect on hypothermia in Swiss albino mouse assessed as change in rectal body temperature at 5 mg/kg, ip dosed 15 mins after 0.1 mg/kg, sc WAY 100635 challenge measured after 30 mins by inducible hypothermia test; assay type: functional, organism-based; settings: not given

SMILES	deltaT [°C]
CC(C)NCC(O)COc1cccc2[nH]ccc12 (centres undefined)	-0.2

system: Mus musculus; assay: Effect on hypothermia in Swiss albino mouse assessed as change in rectal body temperature at 20 mg/kg, ip dosed 15 mins after 0.1 mg/kg, sc WAY 100635 challenge measured after 30 mins by inducible hypothermia test; assay type: functional, organism-based; settings: not given

SMILES	deltaT [°C]
COc1ccc(-c2c3n(c(=O)n(CCCCN4CCC(c5c[nH]c6ccccc56)CC4)c2=O)CCCC3)cc1	-0.3

system: Mus musculus; assay: Effect on hypothermia in Swiss albino mouse assessed as change in rectal body temperature at 5 mg/kg, ip dosed 15 mins after 0.1 mg/kg, sc WAY 100635 challenge measured after 60 mins by inducible hypothermia test; assay type: functional, organism-based; settings: not given

SMILES	deltaT [°C]
CC(C)NCC(O)COc1cccc2[nH]ccc12 (centres undefined)	-0.1

system: Mus musculus; assay: Effect on hypothermia in Swiss albino mouse assessed as change in rectal body temperature at 20 mg/kg, ip dosed 15 mins after 0.1 mg/kg, sc WAY 100635 challenge measured after 60 mins by inducible hypothermia test; assay type: functional, organism-based; settings: not given

SMILES	deltaT [°C]
COc1ccc(-c2c3n(c(=O)n(CCCCN4CCC(c5c[nH]c6ccccc56)CC4)c2=O)CCCC3)cc1	-0.2

system: Mus musculus; assay: Reduction of 8-OH-DPAT-induced hypothermia in Swiss albino mouse at 0.1 mg/kg, ip administered 45 mins prior 8-OH-DPAT challenge measured after 15 mins by inducible hypothermia test; assay type: functional, organism-based; parameters: dose 0.1 mg/kg; settings: not given

SMILES	deltaT [°C]
CC(C)NCC(O)COc1cccc2[nH]ccc12 (centres undefined)	-0.1

system: Mus musculus; assay: Reduction of 8-OH-DPAT-induced hypothermia in Swiss albino mouse at 0.1 mg/kg, ip administered 45 mins prior 8-OH-DPAT challenge measured after 30 mins by inducible hypothermia test; assay type: functional, organism-based; parameters: dose 0.1 mg/kg; settings: not given

SMILES	deltaT [°C]
CC(C)NCC(O)COc1cccc2[nH]ccc12 (centres undefined)	-0.1

system: Mus musculus; assay: Reduction of 8-OH-DPAT-induced hypothermia in Swiss albino mouse at 0.1 mg/kg, ip administered 45 mins prior 8-OH-DPAT challenge measured after 45 mins by inducible hypothermia test; assay type: functional, organism-based; parameters: dose 0.1 mg/kg; settings: not given

SMILES	deltaT [°C]
CC(C)NCC(O)COc1cccc2[nH]ccc12 (centres undefined)	-0.1

system: Mus musculus; assay: Reduction of 8-OH-DPAT-induced hypothermia in Swiss albino mouse at 0.1 mg/kg, ip administered 45 mins prior 8-OH-DPAT challenge measured after 60 mins by inducible hypothermia test; assay type: functional, organism-based; parameters: dose 0.1 mg/kg; settings: not given

SMILES	deltaT [°C]
CC(C)NCC(O)COc1cccc2[nH]ccc12 (centres undefined)	-0.1

system: Mus musculus; assay: Antidepressant activity in Swiss albino mouse assessed as total immobility time at 10 mg/kg, ip administered 30 mins before test measured 6 mins test session after 2 mins habituation period by forced swimming test; assay type: functional, organism-based; parameters: dose 10 mg/kg; settings: not given

SMILES	Activity
COc1ccc(-c2c3n(c(=O)n(CCCCN4CCC(c5c[nH]c6ccccc56)CC4)c2=O)CCCC3)cc1	inactive

system: Mus musculus; assay: Antidepressant activity in Swiss albino mouse assessed as total immobility time at 20 mg/kg, ip administered 30 mins before test measured 6 mins test session after 2 mins habituation period by forced swimming test; assay type: functional, organism-based; parameters: dose 20 mg/kg; settings: not given

SMILES	Activity
COc1ccc(-c2c3n(c(=O)n(CCCCN4CCC(c5c[nH]c6ccccc56)CC4)c2=O)CCCC3)cc1	inactive

species on record: Mus musculus; settings: Swiss albino, 10 mg/kg
Description: Effect on hypothermia in Swiss albino mouse assessed as change in rectal body temperature at 10 mg/kg, ip dosed 15 mins after 0.1 mg/kg, sc WAY 100635 challenge measured after 30 mins by inducible hypothermia test

SMILES	deltaT [°C]
O=c1c(-c2ccccc2)c2n(c(=O)n1CCCCN1CCC(c3c[nH]c4ccccc34)CC1)CCCC2	-0.5

species on record: Mus musculus; settings: Swiss albino, 10 mg/kg; remark: another data set of the same source
Description: Effect on hypothermia in Swiss albino mouse assessed as change in rectal body temperature at 10 mg/kg, ip dosed 15 mins after 0.1 mg/kg, sc WAY 100635 challenge measured after 60 mins by inducible hypothermia test

SMILES	deltaT [°C]
O=c1c(-c2ccccc2)c2n(c(=O)n1CCCCN1CCC(c3c[nH]c4ccccc34)CC1)CCCC2	-0.2
